Measured values: the supplement of paper PMC8671470
Structures can show the parent of a compound that is named as a salt.

Legend:
Test in all cases: cell viability (% survival relative to DMSO control); higher = less cytotoxic
Settings in all cases: 72 h
BV-173 = tested on: BV-173
Protocol: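 8x8 drug-combination matrices (0–5000 nM; rosiglitazone and lestaurtinib 0–1000 nM) were run in BV-173 cells for 72 h with CellTiter-Glo read-out. Survival is normalised to DMSO and 10 µM bortezomib and clipped at 100%.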

HL-60 = tested on: HL-60
Protocol: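 8x8 drug-combination matrices (0-5000 nM; rosiglitazone and lestaurtinib 0-1000 nM) were run in HL-60 cells for 72 h with a CellTiter-Glo read-out. Survival is normalised to DMSO and 10 µM bortezomib and clipped at 100%. Bliss synergy was analysed in SynergyFinder.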

MV4-11 = tested on: MV4-11
Protocol: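 8x8 drug-combination matrices (0–5000 nM; rosiglitazone and lestaurtinib 0–1000 nM) were run in MV4-11 cells for 72 h with CellTiter-Glo read-out. Survival is normalised to DMSO and 10 µM bortezomib and clipped at 100%.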

CN(CCOc1ccc(Cc2sc(O)nc2O)cc1)c1ccccn1 [Rosiglitazone] + CC(C)(Cc1ccccc1)NCC(O)c1ccc(O)c(NS(C)(=O)=O)c1 [Zinterol hydrochloride]
cell viability [%]
Settings | drug1 concentration 1 nM | drug1 concentration 5 nM | drug1 concentration 10 nM | drug1 concentration 50 nM | drug1 concentration 100 nM | drug1 concentration 500 nM | drug1 concentration 1000 nM
BV-173, drug2 concentration 5 nM | > 100 | > 100 | > 100 | > 100 | > 100 | > 100 | > 100
BV-173, drug2 concentration 10 nM | > 100 | 86.8 | > 100 | > 100 | > 100 | > 100 | > 100
BV-173, drug2 concentration 50 nM | 98.6 | > 100 | 88.7 | > 100 | 91.5 | > 100 | > 100
BV-173, drug2 concentration 100 nM | > 100 | > 100 | > 100 | > 100 | > 100 | 97.1 | > 100
BV-173, drug2 concentration 500 nM | > 100 | > 100 | > 100 | > 100 | > 100 | > 100 | > 100
BV-173, drug2 concentration 1000 nM | > 100 | 89.5 | > 100 | 94.1 | > 100 | > 100 | > 100
BV-173, drug2 concentration 5000 nM | 94.8 | > 100 | 90.4 | > 100 | > 100 | 97.6 | > 100
HL-60, drug2 concentration 5 nM | 87.9 | 41.2 | > 100 | 97.5 | > 100 | > 100 | > 100
HL-60, drug2 concentration 10 nM | 63.4 | 95.3 | > 100 | > 100 | 62.7 | > 100 | > 100
HL-60, drug2 concentration 50 nM | 83.3 | 83 | 83.9 | > 100 | 58.8 | > 100 | 92.8
HL-60, drug2 concentration 100 nM | > 100 | 92.2 | 90.1 | > 100 | 80.5 | 78.9 | > 100
HL-60, drug2 concentration 500 nM | 90.1 | > 100 | > 100 | 95.3 | > 100 | 72.1 | 80.8
HL-60, drug2 concentration 1000 nM | 40.6 | > 100 | > 100 | > 100 | > 100 | 60.1 | > 100
HL-60, drug2 concentration 5000 nM | 59.8 | 94.4 | > 100 | > 100 | > 100 | > 100 | 97.7
MV4-11, drug2 concentration 5 nM | > 100 | 97.6 | 93.9 | 77.8 | > 100 | > 100 | > 100
MV4-11, drug2 concentration 10 nM | > 100 | > 100 | > 100 | > 100 | > 100 | 89.1 | > 100
MV4-11, drug2 concentration 50 nM | 97 | 96.9 | 91.9 | > 100 | > 100 | 94 | > 100
MV4-11, drug2 concentration 100 nM | > 100 | > 100 | > 100 | > 100 | 93 | 96.1 | > 100
MV4-11, drug2 concentration 500 nM | 99.9 | > 100 | 98.7 | > 100 | > 100 | 87.2 | 98.8
MV4-11, drug2 concentration 1000 nM | > 100 | 70.6 | 96.2 | > 100 | 91.6 | 95.1 | > 100
MV4-11, drug2 concentration 5000 nM | 95 | > 100 | 98.5 | > 100 | > 100 | > 100 | > 100

O=C(O)CC[N+](=O)[O-] [3-nitropropionic acid] + CCn1c(=Cc2cccc[n+]2CC)sc(=C2Sc3ccccc3N2C)c1=O [MKT 077]
cell viability [%]
Settings | drug1 concentration 5 nM | drug1 concentration 10 nM | drug1 concentration 50 nM | drug1 concentration 100 nM | drug1 concentration 500 nM | drug1 concentration 1000 nM | drug1 concentration 5000 nM
BV-173, drug2 concentration 5 nM | 83.1 | 78.6 | 88.7 | > 100 | > 100 | 83.5 | 59.7
BV-173, drug2 concentration 10 nM | 97.8 | > 100 | > 100 | 94.6 | 72.9 | 92.9 | > 100
BV-173, drug2 concentration 50 nM | 93.3 | > 100 | > 100 | > 100 | > 100 | 99.5 | > 100
BV-173, drug2 concentration 100 nM | 78.1 | 85.8 | > 100 | 94.3 | > 100 | > 100 | 87.9
BV-173, drug2 concentration 500 nM | > 100 | 84.2 | 84.2 | 86.4 | > 100 | 76.6 | > 100
BV-173, drug2 concentration 1000 nM | > 100 | > 100 | > 100 | > 100 | 89.1 | 88.9 | 74.4
BV-173, drug2 concentration 5000 nM | > 100 | 72 | > 100 | > 100 | > 100 | > 100 | > 100
HL-60, drug2 concentration 5 nM | 95.5 | 92.9 | 74.5 | > 100 | > 100 | > 100 | 88.8
HL-60, drug2 concentration 10 nM | > 100 | > 100 | > 100 | > 100 | > 100 | > 100 | > 100
HL-60, drug2 concentration 50 nM | > 100 | 92.7 | > 100 | 98.3 | 97.7 | > 100 | > 100
HL-60, drug2 concentration 100 nM | 91.2 | 83.3 | 56.4 | > 100 | 99.2 | 50.3 | > 100
HL-60, drug2 concentration 500 nM | 99.2 | 84.2 | > 100 | > 100 | > 100 | 84.7 | 86.6
HL-60, drug2 concentration 1000 nM | > 100 | > 100 | > 100 | > 100 | 84 | > 100 | 67.3
HL-60, drug2 concentration 5000 nM | > 100 | 79.2 | > 100 | 84.7 | > 100 | > 100 | 99.6
MV4-11, drug2 concentration 5 nM | 89.1 | 97 | > 100 | 86.8 | > 100 | > 100 | 75.6
MV4-11, drug2 concentration 10 nM | 89.2 | > 100 | > 100 | 83.7 | 98.1 | > 100 | > 100
MV4-11, drug2 concentration 50 nM | > 100 | > 100 | > 100 | 84.1 | > 100 | 81.3 | > 100
MV4-11, drug2 concentration 100 nM | 97.3 | > 100 | 93.7 | 84.3 | > 100 | 88.2 | 68.4
MV4-11, drug2 concentration 500 nM | > 100 | 96 | 92.7 | > 100 | 94.3 | 91.4 | 86.1
MV4-11, drug2 concentration 1000 nM | 89.6 | 97.4 | 92.8 | > 100 | 97.6 | > 100 | 65.1
MV4-11, drug2 concentration 5000 nM | 72.5 | 80 | 96.6 | > 100 | 87.2 | 97.2 | 79.8
